Structures can show the parent of a compound that is named as a salt. Where two headings read alike, the source gives them in different places.
How the values were obtained:
[1] = target: T1, Human fibroblast collagenase (MMP-1) (Homo sapiens, UniProt P03956); assay: MMP inhibition, internal fluorescence quenching method (MCA peptide substrate); type: biochemical
T1 sequence (P03956 101-269): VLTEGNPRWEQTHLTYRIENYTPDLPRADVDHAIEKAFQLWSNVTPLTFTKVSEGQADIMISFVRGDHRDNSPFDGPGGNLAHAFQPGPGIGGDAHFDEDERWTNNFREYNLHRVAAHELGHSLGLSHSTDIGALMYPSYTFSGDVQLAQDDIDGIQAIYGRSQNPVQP
Experimental: (§1) The inhibitory activity of the compounds of the present invention was evaluated in vitro against one or more of the MMP enzymes (gelatinases, collagenases, stromelysins) using the internal fluorescence quenching method. The assay method is based on the hydrolysis of the MMP substrate, MCA-Pro-Leu-Gly-Leu-DPA-Ala—Arg-NH2 at 37° C. (see Knight, C. G. et al., FEBS Lett. 296:263-266, 1992). The enzymes cleave at the Gly-Leu bond removing the internally quenching DPA group. The release of the highly fluorescent peptide MCA-Pro-Leu was monitored with a LS50 Perkin Elmer fluorimeter equipped with a Peltier-thermostated cell holder using an excitation wavelength of 326 nm and an emission wavelenght of 398 nm. Slis were set at 14/14. Proper determination of steady-state rates of substrate cleavage required a preincubation at 37° C. of 15 minutes to allow for complete equilibration of the enzyme-inhibitor complex. […] Rates of substrate hydrolysis, expressed as fluorescence arbitrary units per minute, were calculated by least-square analysis of the steady-state linear progression curves. The steady-state rates were fitted to the Michaelis equation describing competitive inhibition; in particular, Ki,app were determined by fining the data to the tight-binding equation of Morrison (Biochem. Biophys. Acta, 185:269-286, 1969) by non-linear methods.
(§2) Human gelatinase-A (MMP-2) was obtained as penzyme (72 kDa) and was activated with 1 mM 4-aminophenylmercuric acetate for 30 min at 37° C. immediately prior to use. The inhibitor was diluted into the assay from a stock solution in 100% DMSO, and controls substituted an equal volume of DMSO so that the final DMSO concentration from inhibitor and substrate dilution in all assays was 1%. The concentration of MMP-2 was 19.2 picoM. For compounds of formula (I) where X is —OH, the assay buffer was 50 mM Tris/HCl pH 6.5 containing 150 mM NaCl, 10 mM CaCl2, 0.01 mM ZnCl2 and 0.05% Brij35 (Protocol A). Other conditions were as stated above.
Assay conditions were the same as above, but enzyme concentration was 200 picoM.

[2] = target: T2, Human gelatinase-A (MMP-2) (Homo sapiens, UniProt P08253); assay: as above; type: biochemical
T2 sequence (P08253 110-660): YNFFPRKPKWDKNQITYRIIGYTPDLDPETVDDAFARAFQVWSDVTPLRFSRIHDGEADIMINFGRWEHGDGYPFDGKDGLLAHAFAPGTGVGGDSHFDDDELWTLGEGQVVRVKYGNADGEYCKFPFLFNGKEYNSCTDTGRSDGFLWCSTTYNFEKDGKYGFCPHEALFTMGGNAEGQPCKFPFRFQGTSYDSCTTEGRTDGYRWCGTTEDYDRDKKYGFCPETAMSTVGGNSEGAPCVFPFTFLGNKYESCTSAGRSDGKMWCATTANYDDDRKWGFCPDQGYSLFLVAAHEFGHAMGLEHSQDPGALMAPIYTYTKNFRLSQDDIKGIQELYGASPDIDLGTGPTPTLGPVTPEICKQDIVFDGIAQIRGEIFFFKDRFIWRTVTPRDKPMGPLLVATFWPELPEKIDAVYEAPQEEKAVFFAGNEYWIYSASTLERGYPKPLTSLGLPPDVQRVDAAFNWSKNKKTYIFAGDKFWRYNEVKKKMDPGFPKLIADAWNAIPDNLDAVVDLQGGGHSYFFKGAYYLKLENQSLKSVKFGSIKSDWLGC
Experimental: as §1, §2
The compounds of formula (I) where X is —NHOH were tested against MMP-2 and MMP-1 under the conditions stated above, but the assay solution was buffered at pH 7.4 (Protocol B).

[3] = Protocol A: pH 6.5, 37° C., enzyme 200 picoM, substrate 3 μM, carboxylic acids, read-out: MMP-1 Ki
[4] = Protocol A: Tris/HCl pH 6.5, 37° C., MMP-2 19.2 picoM, substrate 3 μM, carboxylic acids, read-out: MMP-2 Ki
[5] = Protocol B: pH 7.4, 37° C., hydroxamic acids (X is —NHOH), read-out: MMP-1 Ki (picoM)
[6] = Protocol B: pH 7.4, 37° C., hydroxamic acids (X is —NHOH), read-out: MMP-2 Ki (picoM)

What does the source list for `CN1C(=O)N(CC(CS(=O)(=O)c2ccc(-c3ccc(Cl)cc3)cc2)C(=O)O)C(=O)C1(C)C` (racemic) [Example 5, 3-[(4′-chloro[1,1′-biphenyl]-4-yl)sulfonyl]-2-[(3,4,4-trimethyl-2,5-dioxo-1-imidazolidinyl)methyl]propanoic acid]?
Ki [1, 3]: > 2000 nM; Ki [2, 4]: 5.5 nM

For `O=C(O)C(CSc1nc2ccccc2[nH]1)CS(=O)(=O)c1ccc(-c2ccc(Cl)cc2)cc1` (stereo not shown) [Example 37, 3-[(4′-chloro[1,1′-biphenyl]-4-yl)sulfonyl]-2-[(1H-benzimidazol-2-yl-sulfanyl)methyl]-propanoic acid], which Ki [2, 4] is on record?
The Ki was 18.2 nM.

With `O=C(O)C(CSc1ccccn1)CS(=O)(=O)c1ccc(-c2ccc(Cl)cc2)cc1` (stereo not shown) [Example 20, 3-[(4′-chloro[1,1′-biphenyl]-4-yl)sulfonyl]-2-[(2-pyridinylsulfanyl)methyl]propanoic acid] as the compound, how does the Ki [1, 3] read?
The Ki was 6290 nM.

What about the Ki [2, 4] of the same compound?
Its Ki is 3.9 nM.

With `CN1C(=O)N(CC(CS(=O)(=O)c2ccc(-c3ccccc3)cc2)C(=O)O)C(=O)C1(C)C` (stereo not shown) [Example 7] as the compound, how does the melting point read?
Its melting point is > 200 °C (dec.).

What about the Ki [2, 4] of the same compound?
The Ki was 42 nM.

With `Cc1cc(SCC(CS(=O)(=O)c2ccc(-c3ccc(Cl)cc3)cc2)C(=O)O)nc(C)n1` (stereo not shown) [Example 26, 3-[(4′-chloro[1,1′-biphenyl]-4-yl)sulfonyl]-2-[[(2,6-dimethyl-4-pyrimidinyl)sulfanyl]methyl]propanoic acid] as the compound, how does the melting point read?
The melting point was 170 to 172 °C.

What about the Ki [2, 4] of the same compound?
Its Ki is 26.8 nM.

For `O=C(O)C(COc1ccccc1CO)CS(=O)(=O)c1ccc(-c2ccc(Cl)cc2)cc1` (stereo not shown) [Example 33, 3-[(4′-chloro[1,1′-biphenyl]-4-yl)sulfonyl]-2-[[2-(hydroxymethyl)phenoxy]-methyl]propanoic acid], which Ki [2, 4] is on record?
Its Ki is 15 nM.

With `O=C(Nc1ccc(S(=O)(=O)CC(CSc2cccs2)C(=O)O)cc1)c1ccccc1` (stereo not shown) [Example 14, 3-[[4-(Benzoylamino)phenyl]sulfonyl]-2-[(2-thienylsulfanyl)methyl]propanoic acid] as the compound, how does the Ki [2, 4] read?
Its Ki is 8 nM.

Which Ki [1, 5] does the source give for `CN1C(=O)N(CC(CS(=O)(=O)c2ccc(-c3ccc(Cl)cc3)cc2)C(=O)NO)C(=O)C1(C)C` (stereo not shown) [Example 8, 3-[(4′-chloro[1,1′-biphenyl]-4-yl)sulfonyl]-N-hydroxy-2-[(3,4,4-trimethyl-2,5-dioxo-1-imidazolidinyl)methyl]propanamide] here?
Its Ki is 26.8 nM.

And the Ki [2, 6]?
The Ki was 0.107 nM.

With `CC1(C)NC(=O)N(CC(CS(=O)(=O)c2ccc(-c3ccc(Cl)cc3)cc2)C(=O)NO)C1=O` (stereo not shown) [Example 10, 3-[(4′-chloro[1,1′-biphenyl]-4-yl)sulfonyl]-N-hydroxy-2-[(4,4-dimethyl-2,5-dioxo-1-imidazolidinyl)methyl]propanamide] as the compound, how does the Ki [1, 5] read?
Its Ki is 12.6 nM.

And the Ki [2, 6]?
The Ki was 0.05 nM.

For `O=C(O)C(CSc1ccccc1)CS(=O)(=O)c1ccc(-c2ccc(Cl)cc2)cc1` (single isomer, unassigned) [3, Isomer 2], which Ki [2, 4] is on record?
The Ki was 660 nM.

Which Ki [2, 4] does the source give for `CCCCN1C(=O)CN(CC(CS(=O)(=O)c2ccc(-c3ccc(Cl)cc3)cc2)C(=O)O)C1=O` (stereo not shown) [Example 18, 3-[(4′-chloro[1,1′-biphenyl]-4-yl)sulfonyl]-2-[(3-butyl-2,4-dioxo-1-imidazolidinyl)methyl]propanoic acid] here?
The Ki was 7.8 nM.

Which Ki [2, 4] does the source give for `Cn1ccnc1SCC(CS(=O)(=O)c1ccc(-c2ccc(Cl)cc2)cc1)C(=O)O` (stereo not shown) [Example 25, 3-[(4′-chloro[1,1′-biphenyl]-4-yl)sulfonyl]-2-[[(1-methyl-1H-imidazol-2-yl)sulfanyl]methyl]propanoic acid] here?
Its Ki is 16 nM.

What does the source list for `O=C(Nc1ccc(S(=O)(=O)CC(CSc2ccccc2)C(=O)O)cc1)c1ccccc1` (stereo not shown) [Example 15, 3-[[4-(Benzoylamino)phenyl]sulfonyl]-2-[(phenylsulfanyl)methyl]propanoic acid]?
Ki [1, 3]: 81100 nM; Ki [2, 4]: 7 nM

Which Ki [2, 4] does the source give for `Cc1nnc(SCC(CS(=O)(=O)c2ccc(-c3ccc(Cl)cc3)cc2)C(=O)O)s1` (stereo not shown) [Example 36, 3-[(4′-chloro[1,1′-biphenyl]-4-yl)sulfonyl]-2-[[(S-methyl-1,3,4-thiadiazol-2-yl)sulfanyl]methyl]propanoic acid.] here?
The Ki was 33.4 nM.

Which Ki [2, 4] does the source give for `O=C(O)C(CSc1ccccc1)CS(=O)(=O)c1ccc(-c2ccc(Cl)cc2)cc1` (single isomer, unassigned) [3, Isomer 1] here?
The Ki was 6 nM.

With `N#Cc1ccc(-c2ccc(S(=O)(=O)CC(CSc3ccccc3)C(=O)O)cc2)cc1` (stereo not shown) [Example 19, 3-[(4′-cyano[1,1′-biphenyl]-4-yl)sulfonyl]-2-[(phenylsulfanyl)methyl]propanoic acid] as the compound, how does the Ki [2, 4] read?
The Ki was 17 nM.

With `CCCCN1CC(=O)N(CC(CS(=O)(=O)c2ccc(-c3ccc(Cl)cc3)cc2)C(=O)O)C1=O` (stereo not shown) [Example 13] as the compound, how does the Ki [1, 3] read?
Its Ki is 5290 nM.

What about the Ki [2, 4] of the same compound?
The Ki was 12 nM.

Which Ki [2, 4] does the source give for `CN1C(=O)N(CC(CS(=O)(=O)c2ccc(-c3ccc(Cl)cc3)cc2)C(=O)O)C(=O)C1(C)C` (single isomer, unassigned) [6, Isomer 2] here?
Its Ki is 50 nM.

With `N#Cc1ccc(-c2ccc(S(=O)(=O)CC(COc3ccccc3)C(=O)O)cc2)cc1` (stereo not shown) [Example 29, 3-[(4′-cyano[1,1′-biphenyl]-4-yl)sulfonyl]-2-(phenoxymethyl)propanoic acid, sodium salt] as the compound, how does the Ki [2, 4] read?
The Ki was 21.5 nM.

What does the source list for `N#Cc1ccc(C(=O)Nc2ccc(S(=O)(=O)CC(COc3ccccc3)C(=O)O)cc2)cc1` (stereo not shown) [Example 35, 3-[[4-[(4-cyanobenzoyl)amino]phenyl]sulfonyl]-2-(phenoxymethyl)propanoic acid]?
Ki [1, 3]: 67500 nM; Ki [2, 4]: 4.8 nM

Which results are given for `O=C(NO)C(CSc1ccccc1)CS(=O)(=O)c1ccc(-c2ccc(Cl)cc2)cc1` (stereo not shown) [Example 4, 3-[(4′-chloro[1,1′-biphenyl]-4-yl)sulfonyl]-N-hydroxy-2-[(phenylsulfanyl)methyl]propanamide]?
Ki [1, 5]: 149 nM; Ki [2, 6]: 0.159 nM

For `CN1C(=O)N(CC(CS(=O)(=O)c2ccc(-c3ccc(Cl)cc3)cc2)C(=O)O)C(=O)C1(C)C` (single isomer, unassigned) [6, Isomer 1], which Ki [1, 3] is on record?
The Ki was 3600 nM.

And the Ki [2, 4]?
The Ki was 3.7 nM.

Which Ki [1, 3] does the source give for `O=C(O)C(CSc1ccc(O)cc1)CS(=O)(=O)c1ccc(-c2ccc(Cl)cc2)cc1` (stereo not shown) [Example 16, 3-[(4′-chloro[1,1′-biphenyl]-4-yl)sulfonyl]-2-[[(4-hydroxyphenyl)sulfanyl]methyl]propanoic acid] here?
The Ki was 9700 nM.

And the Ki [2, 4]?
Its Ki is 9 nM.

For `O=C(Nc1ccc(S(=O)(=O)CC(COc2ccccc2)C(=O)O)cc1)c1ccc(Cl)cc1` (stereo not shown) [Example 34, 3-[[4-[(4-chlorobenzoyl)amino]phenyl]sulfonyl]-2-(phenoxymethyl)propanoic acid], which Ki [1, 3] is on record?
The Ki was 54000 nM.

And the Ki [2, 4]?
Its Ki is 2.4 nM.

With `CC(=O)Nc1ccc(OCC(CS(=O)(=O)c2ccc(-c3ccc(Cl)cc3)cc2)C(=O)O)cc1` (stereo not shown) [Example 30, 3-[(4′-chloro[1,1′-biphenyl]-4-yl)sulfonyl]-2-[(4-acetylaminophenoxy)methyl]propanoic acid] as the compound, how does the Ki [1, 3] read?
Its Ki is 19600 nM.

What about the Ki [2, 4] of the same compound?
The Ki was 46 nM.

For `O=C(Nc1ccc(S(=O)(=O)CC(CSc2ccccc2)C(=O)O)cc1)c1ccc(Cl)cc1` (stereo not shown) [Example 21, 3-[[4-[(4-chlorobenzoyl)amino]phenyl]sulfonyl]-2-[(phenylsulfanyl)methyl]-propanoic acid], which Ki [1, 3] is on record?
The Ki was 50600 nM.

What about the Ki [2, 4] of the same compound?
The Ki was 1.4 nM.

Which results are given for `O=C(O)C(COc1ccccc1)CS(=O)(=O)c1ccc(-c2ccc(Cl)cc2)cc1` (stereo not shown) [Example 17, 3-[(4′-Chloro[1,1′-biphenyl]-4-yl)sulfonyl]-2-(phenoxymethyl)propanoic acid, sodium salt]?
Ki [1, 3]: 14700 nM; Ki [2, 4]: 9.2 nM

Reference: US6765003B1, “3-Arylsulfonyl-2 (substituted methyl) propanoic acid derivatives as matrix metalloproteinase inhibitors” (Pharmacia Italia, SpA, priority 1999, dated 2004)
